Data taken from patent publication US11091451B2, “SHMT inhibitors and uses thereof” (Raze Therapeutics, Inc., priority 2016, dated 2021).

Key:
[1] = target: human cytosolic Serine Hydroxymethyl transferase 1 (SHMT1) (Homo sapiens (Human), UniProt P34896); assay: SHMT1 activity inhibition assay (serine production from glycine and CH2-THF, mass spectroscopy); assay type: biochemical; conditions: 60 minutes at room temperature
Source text: (§1) Full length human cytosolic Serine Hydroxymethyl transferase 1 (SHMT1, residues 1-483 in Uniport ID P34896) was expressed as an N-terminal His6 tagged protein and purified in E. coli using nickel capture followed by size-exclusion chromatography. Human mitochondrial SHMT2 (residues 30-504 in Uniprot ID P34897) with mitochondrial leader sequence deleted was expressed as an N-terminal His6 tagged protein and purified in E. coli using nickel capture followed by size-exclusion chromatography.
(§2) Serine hydroxymethyltransferases catalyze the reversible hydroxymethylation of glycine to serine, with methylene tetrahydrofolate (CH2-THF) providing the additional carbon. SHMT1 and SHMT2 activity was determined by measuring serine production from glycine and CH2-THF using mass spectroscopy. Briefly, 15 ul of 0.5 mM glycine and 0.2 mM CH2-THF in 20 mM TEA, pH8.0, 0.2 mM NADPH were added to 384 well plate containing 0, 0.05 mM, 0.005 mM or 0.0005 mM of inhibitor. 15 ul of SHMT1 or 2 were added to initiate the reaction. The plate was incubated for 60 minutes at room temperature and the reaction was quenched by the addition of 30 ul of 10% trichloroacetic acid. Serine produced was analyzed using Rapidfire 360 and API4000^+ in the positive ion mode.

[2] = target: Human mitochondrial SHMT2 (Homo sapiens (Human), UniProt P34897); assay: SHMT2 activity inhibition assay (serine production from glycine and CH2-THF, mass spectroscopy); assay type: biochemical; conditions: 60 minutes at room temperature
Source text: as §1
as §2, with “15 ul of SHMT1 or 2 were added to initiate the reaction.” left out

human cytosolic Serine Hydroxymethyl transferase 1 (SHMT1), sequence (P34896 whole entry, the tested form may be a part): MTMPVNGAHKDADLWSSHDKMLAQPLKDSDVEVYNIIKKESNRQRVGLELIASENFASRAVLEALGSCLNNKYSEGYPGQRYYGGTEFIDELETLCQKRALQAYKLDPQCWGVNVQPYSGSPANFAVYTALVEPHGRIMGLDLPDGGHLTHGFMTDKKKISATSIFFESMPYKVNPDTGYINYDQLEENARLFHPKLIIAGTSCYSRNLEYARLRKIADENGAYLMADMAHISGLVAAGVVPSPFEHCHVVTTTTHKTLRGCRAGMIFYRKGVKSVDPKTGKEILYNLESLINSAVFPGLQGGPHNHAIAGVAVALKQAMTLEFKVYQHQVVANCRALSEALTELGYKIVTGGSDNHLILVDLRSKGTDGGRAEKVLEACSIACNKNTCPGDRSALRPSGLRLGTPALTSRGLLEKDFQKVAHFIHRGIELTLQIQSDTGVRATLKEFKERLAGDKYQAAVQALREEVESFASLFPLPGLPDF
Human mitochondrial SHMT2, sequence (P34897 30-504): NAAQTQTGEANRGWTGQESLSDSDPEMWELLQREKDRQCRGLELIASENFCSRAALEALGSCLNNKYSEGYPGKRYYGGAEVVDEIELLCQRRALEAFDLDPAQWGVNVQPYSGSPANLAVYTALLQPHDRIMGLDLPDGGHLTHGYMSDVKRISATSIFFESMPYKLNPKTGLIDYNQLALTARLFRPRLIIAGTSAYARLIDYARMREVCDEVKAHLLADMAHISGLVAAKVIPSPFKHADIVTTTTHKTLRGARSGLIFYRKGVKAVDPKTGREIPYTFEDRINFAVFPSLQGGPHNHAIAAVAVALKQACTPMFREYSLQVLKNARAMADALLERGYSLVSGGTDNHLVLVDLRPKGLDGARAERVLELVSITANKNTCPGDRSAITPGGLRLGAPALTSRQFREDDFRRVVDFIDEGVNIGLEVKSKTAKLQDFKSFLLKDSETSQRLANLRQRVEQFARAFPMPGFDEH

SMILES	IC50 [1]	IC50 [2]
CC(C)(NC(=O)Cc1csc(-c2ccc(Cl)cc2-c2cccc(C#N)c2)n1)C(=O)O [Compound I-1, 2-[[2-[2-[4-Chloro-2-(3-cyanophenyl)phenyl]thiazol-4-yl]acetyl]amino]-2-methyl-propanoic Acid]	< 1 µM	< 1 µM
CC(C)(NC(=O)Cc1csc(-c2ccc3c(c2-c2ccccc2)OCCO3)n1)C(=O)O [Compound I-2, 2-Methyl-2-[[2-[2-(5-phenyl-2,3-dihydro-1,4-benzodioxin-6-yl)thiazol-4-yl]acetyl]amino] propanoic Acid]	< 1 µM	1 to 10 µM
Cc1ccc(-c2cc(Cl)ccc2-c2cccc(CC(=O)NC(C)(C)C(=O)O)c2)cc1 [Compound I-3, 2-[[2-[3-[4-Chloro-2-(p-tolyl)phenyl]phenyl]acetyl]amino]-2-methyl-propanoic Acid]	< 1 µM	< 1 µM
Cc1cccc(-c2cc(Cl)ccc2-c2nc(CC(=O)NC(C)(C)C(=O)O)cs2)c1 [Compound I-4]	< 1 µM	< 1 µM
CC(C)(NC(=O)Cc1csc(-c2ccc(Cl)cc2-c2ccccc2)n1)C(=O)O [Compound I-5]	< 1 µM	< 1 µM
CC(C)(NC(=O)Cc1csc(-c2ccc(Cl)cc2-c2cccc(Cl)c2)n1)C(=O)O [Compound I-6]	< 1 µM	< 1 µM
CC(C)(NC(=O)Cc1csc(-c2ccc(Cl)cc2-c2cccc3c2COC3)n1)C(=O)O [Compound I-7]	< 1 µM	< 1 µM
COc1cc(-c2nc(CC(=O)NC(C)(C)C(=O)O)cs2)c(-c2ccccc2)cc1Cl [Compound I-8, 2-[[2-[2-(4-chloro-5-methoxy-2-phenyl-phenyl)thiazol-4-yl]acetyl]amino]-2-methyl-propanoic Acid]	< 1 µM	< 1 µM
Cc1cccc(-c2cc(Cl)ccc2-c2nc(CC(=O)NC(C)(C)C(=O)O)cs2)c1C [Compound I-9]	< 1 µM	< 1 µM
CC(C)(NC(=O)Cc1csc(-c2ccc(Cl)cc2CC2CCC2)n1)C(=O)O [Compound I-10, 2-[[2-[2-[4-Chloro-2-(cyclobutylmethyl)phenyl]thiazol-4-yl]acetyl]amino]-2-methyl-propanoic Acid]	< 1 µM	< 1 µM
CC(=O)N1CCC(c2cc(Cl)ccc2-c2nc(CC(=O)NC(C)(C)C(=O)O)cs2)CC1 [Compound I-11, 2-[[2-[2-[2-(1-Acetyl-4-piperidyl)-4-chloro-phenyl]thiazol-4-yl]acetyl]amino]-2-methyl-propanoic Acid]	1 to 10 µM	< 1 µM
CCc1cccc(-c2cc(Cl)ccc2-c2nc(CC(=O)NC(C)(C)C(=O)O)cs2)c1 [Compound I-12]	1 to 10 µM	< 1 µM
COc1ccc(-c2nc(CC(=O)NC(C)(C)C(=O)O)cs2)c(-c2ccccc2)c1 [Compound I-13, 2-[[2-[2-(4-Methoxy-2-phenyl-phenyl)thiazol-4-yl]acetyl]amino]-2-methyl-propanoic Acid]	1 to 10 µM	
CC(C)(NC(=O)Cc1csc(-c2ccc(Cl)cc2-c2cccc3c2CCC3)n1)C(=O)O [Compound I-14]	1 to 10 µM	< 1 µM
CC(C)(NC(=O)Cc1cccc(-c2ccc(Cl)cc2-c2ccc(F)cc2)c1)C(=O)O [Compound I-15, 2-[[2-[3-[4-Chloro-2-(4-fluorophenyl)phenyl]phenyl]acetyl]amino]-2-methyl-propanoic Acid]	1 to 10 µM	< 1 µM
CC(C)(NC(=O)Cc1csc(-c2ccc(Cl)cc2C2CCOCC2)n1)C(=O)O [Compound I-16, 2-[[2-[2-(4-Chloro-2-tetrahydropyran-4-yl-phenyl)thiazol-4-yl]acetyl]amino]-2-methyl-propanoic Acid]	1 to 10 µM	< 1 µM
CC(C)(NC(=O)Cc1cncc(-c2ccc(Cl)cc2-c2ccccc2)c1)C(=O)O [Compound I-17, 2-[[2-[5-(4-Chloro-2-phenyl-phenyl)-3-pyridyl]acetyl]amino]-2-methyl-propanoic Acid]	1 to 10 µM	< 1 µM
CC(C)(NC(=O)Cc1cccc(-c2ccc(Cl)cc2-c2ccccc2)n1)C(=O)O [Compound I-18]	1 to 10 µM	< 1 µM
CC(C)(NC(=O)Cc1cccc(-c2ccc(Cl)cc2-c2cccc(C(N)=O)c2)c1)C(=O)O [Compound I-19, 2-[[2-[3-[2-(3-Carbamoylphenyl)-4-chloro-phenyl]phenyl]acetyl]amino]-2-methyl-propanoic Acid]	1 to 10 µM	< 1 µM
CC(C)(NC(=O)Cc1ccnc(-c2ccc(Cl)cc2-c2ccccc2)c1)C(=O)O [Compound I-20]	1 to 10 µM	
CC(C)Cc1cc(Cl)ccc1-c1nc(CC(=O)NC(C)(C)C(=O)O)cs1 [Compound I-21]	1 to 10 µM	< 1 µM
CC(C)(NC(=O)Cc1cc(-c2ccc(Cl)cc2-c2ccccc2)ccn1)C(=O)O [Compound I-23]	1 to 10 µM	1 to 10 µM
CC(C)(NC(=O)Cc1csc(-c2ccc(Cl)cc2Cl)n1)C(=O)O [Compound I-24]	1 to 10 µM	< 1 µM

SMILES	IC50 [1]	IC50 [2]
CC(C)c1cc(Cl)ccc1-c1nc(CC(=O)NC(C)(C)C(=O)O)cs1 [Compound I-25]	1 to 10 µM	< 1 µM
CC(C)(NC(=O)Cc1csc(-c2ccc(Cl)cc2C2CC2)n1)C(=O)O [Compound I-26]	10 to 100 µM	1 to 10 µM
CCc1cc(Cl)ccc1-c1nc(CC(=O)NC(C)(C)C(=O)O)cs1 [Compound I-27]	10 to 100 µM	1 to 10 µM
O=C(Cc1csc(-c2ccc(Cl)cc2Cl)n1)NC1(C(=O)O)CCC1 [Compound I-28]	10 to 100 µM	1 to 10 µM
CC(C)(NC(=O)Cc1ccnc(-c2ccc(Cl)cc2-c2ccccc2)n1)C(=O)O [Compound I-29]	10 to 100 µM	1 to 10 µM
CC(C)(NC(=O)Cc1cccc(-c2ccc(Cl)cc2)c1)C(=O)O [Compound I-30, 2-[2-[3-(4-chlorophenyl)phenyl]acetamido]-2-methylpropanoic Acid]	10 to 100 µM	1 to 10 µM
CC(C)(NC(=O)Cc1csc(-c2ccc(Cl)cc2C2CCNCC2)n1)C(=O)O [Compound I-31, 2-[[2-[2-[4-Chloro-2-(4-piperidyl)phenyl]thiazol-4-yl]acetyl]amino]-2-methyl-propanoic Acid]	10 to 100 µM	1 to 10 µM
CC[C@@H](C)[C@H](NC(=O)Cc1csc(-c2cccc(Cl)c2)n1)C(=O)O [Compound I-32]	10 to 100 µM	10 to 100 µM
Cc1sc(-c2ccc(Cl)cc2Cl)nc1CC(=O)NC(C)(C)C(=O)O [Compound I-33]	10 to 100 µM	1 to 10 µM
O=C(O)CNC(=O)Cc1csc(-c2ccc(Cl)cc2-c2ccccc2)n1 [Compound I-34, 2-[2-[2-(4-chloro-2-phenylphenyl)-1,3-thiazol-4-yl]acetamido]acetic Acid]	10 to 100 µM	10 to 100 µM
C[C@H](NC(=O)Cc1csc(-c2ccc(Cl)cc2Cl)n1)C(=O)O [Compound I-35]	10 to 100 µM	10 to 100 µM
O=C(O)CNC(=O)Cc1csc(-c2ccc(Cl)c(-c3ccccc3)c2)n1 [Compound I-36]	10 to 100 µM	10 to 100 µM
O=C(Cc1csc(-c2ccc3c(c2)OCCO3)n1)NC1(C(=O)O)CCC1 [Compound I-37]	10 to 100 µM	1 to 10 µM
CC(C(=O)NCC(=O)O)c1csc(-c2ccc(Cl)cc2Cl)n1 (stereo not drawn) [Compound I-38]	10 to 100 µM	10 to 100 µM
C[C@H](NC(=O)Cc1csc(-c2cccc(Br)c2)n1)C(=O)O [Compound I-39]	10 to 100 µM	10 to 100 µM
O=C(O)CNC(=O)Cc1csc(-c2ccc(Cl)c3ccccc23)n1 [Compound I-40, 2-[2-[2-(4-chloronaphthalen-1-yl)-1,3-thiazol-4-yl]acetamido]acetic Acid]	10 to 100 µM	10 to 100 µM
O=C(O)CNC(=O)Cc1cccc(-c2ccc(Cl)cc2Cl)c1 [Compound I-41]	10 to 100 µM	10 to 100 µM
O=C(Cc1csc(-c2ccc(Cl)cc2Cl)n1)N[C@@H](Cc1ccccc1)C(=O)O [Compound I-42]	10 to 100 µM	100 to 500 µM
CC(NC(=O)Cc1csc(-c2cccc(Br)c2)n1)C(=O)O (stereo not drawn) [Compound I-43]	10 to 100 µM	10 to 100 µM
NC(=O)NCCC[C@@H](NC(=O)Cc1csc(-c2ccc(F)cc2)n1)C(=O)O [Compound I-44]	10 to 100 µM	100 to 500 µM
O=C(Cc1csc(-c2ccc(Cl)cc2Cl)n1)NC1(C(=O)O)CC1 [Compound I-45]	10 to 100 µM	10 to 100 µM
O=C(O)CNC(=O)Cc1csc(-c2ccc(Cl)cc2Cl)n1 [Compound I-46]	10 to 100 µM	10 to 100 µM
CC(C)C[C@H](NC(=O)Cc1csc(-c2ccc(Cl)cc2Cl)n1)C(=O)O [Compound I-47]	100 to 500 µM	100 to 500 µM
